Test results published in patent US7932262B2 (Novartis AG, priority 2006, dated 2011).
Like-named read-outs stand apart in the source and are kept apart here.

Columns and labels:
PDK1 kinase = target: T1, PDK1 kinase (Homo sapiens, UniProt O15530); experiment: PDK1 Kinase Alpha Screen Assay; assay type: biochemical; conditions: read-out: PDK1 IC50
T1 sequence (O15530 1-556): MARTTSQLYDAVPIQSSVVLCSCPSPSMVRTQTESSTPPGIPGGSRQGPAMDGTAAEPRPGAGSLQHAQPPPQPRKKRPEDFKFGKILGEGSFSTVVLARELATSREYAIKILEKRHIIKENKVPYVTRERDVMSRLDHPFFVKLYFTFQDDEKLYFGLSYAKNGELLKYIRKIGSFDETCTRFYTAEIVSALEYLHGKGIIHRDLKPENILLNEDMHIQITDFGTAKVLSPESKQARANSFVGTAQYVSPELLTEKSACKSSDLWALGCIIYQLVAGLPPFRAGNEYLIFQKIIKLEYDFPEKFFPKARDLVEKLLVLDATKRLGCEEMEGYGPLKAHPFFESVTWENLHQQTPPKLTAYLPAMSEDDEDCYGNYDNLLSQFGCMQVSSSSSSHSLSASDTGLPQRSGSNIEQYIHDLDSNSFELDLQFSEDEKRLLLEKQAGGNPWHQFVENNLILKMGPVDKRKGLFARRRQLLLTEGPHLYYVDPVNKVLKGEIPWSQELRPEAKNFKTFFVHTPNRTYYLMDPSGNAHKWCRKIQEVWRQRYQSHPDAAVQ
Method in brief: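 PDK1 phosphorylated 50 nM biotinylated PDK1-4 peptide with 10 uM ATP in Tris pH 7.5, 10 mM MgCl2, 2 mM DTT, 2.5% DMSO for 3-18 hours. After EDTA stop, phosphopeptide was detected by AlphaScreen using phospho-(Ser/Thr) PKA substrate antibody with protein A/streptavidin beads, read after overnight incubation.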

PC3MM cells = experiment: Cell Proliferation Assay (Cell Titer Glo), PC3MM; assay type: cell-based; conditions: read-out: CPEC50 PC3MM
Protocol: IV. Cell Proliferation Assay Protocol:
A2780, PC-3, or PC3MM cells were seeded at 1000 cells/well in 100 μL/well (10.000 cells/mL) growth media in 96-well plates. Cells were allowed to adhere to the bottom of plates for 3-5 hours in a 37° C. 5% CO2 incubator. Compounds were dissolved in DMSO and then transferred to the cell plates. The cells were incubated with the compounds for 3 days in a 37° C. 5% CO2 incubator. The growth medium containing the compounds was then removed from the cells and fresh medium was added, followed by 100 μL of Cell Titer Glo assay reagent (Promega). This mixture was shaken for 1 minute and then incubated without shaking for 10 minutes. Activity determinations for the compounds were made by detection on a Trilux Instrument.

A2780 cells = experiment: Cell Proliferation Assay (Cell Titer Glo), A2780; assay type: cell-based; conditions: Homo sapiens, read-out: CPEC50 A2780
Method in brief: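 Cells seeded at 1000/well, allowed to adhere 3-5 h, then exposed to DMSO-dissolved compounds for 3 days at 37° C., 5% CO2. Medium replaced before Cell Titer Glo addition; luminescence read after 10 min.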

PC-3 cells = experiment: Cell Proliferation Assay (Cell Titer Glo), PC-3 cell line; assay type: cell-based; conditions: Homo sapiens
Method in brief: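 PC-3 cells, 1000 cells/well, left to adhere 3-5 h, then exposed for 3 days at 37° C to compounds as 1:3 serial dilutions from 500× DMSO stocks diluted in growth medium. Medium then replaced with fresh medium and viability read by Cell Titer Glo luminescence.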

[1] = Cell Proliferation Assay, PC3MM
[2] = cell proliferation, PC3MM cells
[3] = cell proliferation, A2780 cells
[4] = PC-3, cell proliferation, PC3 cells, read-out: CPEC50 PC3
[5] = Cell Proliferation Assay, A2780
[6] = PC-3, Cell Proliferation Assay, PC3, read-out: CPEC50 PC3

Row | SMILES | IC50 (PDK1 kinase; PDK1 Kinase Alpha Screen Assay) | EC50 (PC3MM cells; [1]) | also measured
1 | CN1CCC(Oc2ccc3cnc(Nc4cc(C(N)=O)cc(-c5cnn(C)c5)c4)nc3c2)CC1 [Compound 660, 3-(1-methyl-1H-pyrazol-4-yl)-5-(7-(1-methylpiperidin-4-yloxy)quinazolin-2-ylamino)benzamide] | < 5 µM | < 5 µM | 
2 | C#Cc1cc(OC2CCNCC2)c2nc(Nc3cc(C(=O)N4CCOCC4)cc(N4CCOCC4)c3)ncc2c1 [Compound 667, (3-(6-ethynyl-8-(piperidin-4-yloxy)quinazolin-2-ylamino)-5-morpholinophenyl)(morpholino) methanone] | < 5 µM | < 5 µM | 
3 | O=C(c1cc(Nc2ncc3cc(-c4cn[nH]c4)cc(OC4CCNCC4)c3n2)cc(N2CCOCC2)c1)N1CCOCC1 [Compound 664, morpholino(3-morpholino-5-(8-(piperidin-4-yloxy)-6-(1H-pyrazol-4-yl)quinazolin-2-ylamino)phenyl)methanone] | < 5 µM | 5 to 10 µM | 
4 | Cn1cc(-c2cc(Nc3ncc4cc(-c5nccs5)cc(OC5CCNCC5)c4n3)cc(C(N)=O)c2)cn1 [Compound 673, 3-(1-methyl-1H-pyrazol-4-yl)-5-(8-(piperidin-4-yloxy)-6-(thiazol-2-yl)quinazolin-2-ylamino)benzamide] | < 5 µM | 5 to 10 µM | 
5 | NC(=O)c1cc(Nc2ncc3cc(-c4nccs4)c(OC4CCNCC4)cc3n2)cc(N2CCOCC2)c1 [Compound 675, 3-morpholino-5-(7-(piperidin-4-yloxy)-6-(thiazol-2-yl)quinazolin-2-ylamino)benzamide] | < 5 µM | 5 to 10 µM | 
6 | CC(=O)Nc1cc(NC(C)=O)cc(Nc2ncc3ccc(OC4CCNCC4)cc3n2)c1 [Compound 658, N,N′-(5-(7-(piperidin-4-yloxy)quinazolin-2-ylamino)-1,3-phenylene)diacetamide] | < 5 µM | 5 to 10 µM | 
7 | c1cc(N2CCOCC2)ccc1Nc1ncc2cc(-c3cn[nH]c3)c(OC3CCNCC3)cc2n1 [Compound 651, N-(4-morpholinophenyl)-7-(piperidin-4-yloxy)-6-(1H-pyrazol-4-yl)quinazolin-2-amine] | < 5 µM | < 5 µM | 
8 | COC(=O)Nc1cc(CN2CCOCC2)cc(Nc2ncc3cccc(OC4CCNCC4)c3n2)c1 [Compound 656, methyl 3-(morpholinomethyl)-5-(8-(piperidin-4-yloxy)quinazolin-2-ylamino)phenylcarbamate] | < 5 µM | < 5 µM | 
9 | C#Cc1cc(OC2CCNCC2)c2nc(Nc3cc(C(N)=O)cc(N4CCOCC4)c3)ncc2c1 [Compound 666, 3-(6-ethynyl-8-(piperidin-4-yloxy)quinazolin-2-ylamino)-5-morpholinobenzamide] | < 5 µM | 5 to 10 µM | 
10 | CS(=O)(=O)c1cccc(-c2ccc3cnc(Nc4ccc(S(N)(=O)=O)cc4)nc3c2)c1 [Compound 787, 4-(7-(3-(methylsulfonyl)phenyl)quinazolin-2-ylamino)benzenesulfonamide] | < 5 µM |  | EC50 (PC3MM cells; [2]): < 5 µM
11 | CC(=O)Nc1cccc(-c2ccc3cnc(Nc4ccc(S(N)(=O)=O)cc4)nc3c2)c1 [Compound 785, N-(3-(2-(4-sulfamoylphenylamino)quinazolin-7-yl)phenyl)acetamide] | 5 to 10 µM |  | EC50 (PC3MM cells; [2]): 5 to 10 µM
12 | COc1c(-c2cnn(CC(C)C)c2)ccc2cnc(Nc3cc(CN4CCOCC4)cc(NC(C)=O)c3)nc12 [Compound 715, N-(3-(7-(1-isobutyl-1H-pyrazol-4-yl)-8-methoxyquinazolin-2-ylamino)-5-(morpholinomethyl)phenyl)acetamide] | < 5 µM |  | EC50 (PC3MM cells; Cell Proliferation Assay, PC3MM cells): < 5 µM
13 | C#Cc1cc2cnc(Nc3cc(C(N)=O)cc(N4CCOCC4)c3)nc2cc1OC1CCNCC1 [Compound 679, 3-(6-ethynyl-7-(piperidin-4-yloxy)quinazolin-2-ylamino)-5-morpholinobenzamide] | < 5 µM | 5 to 10 µM | 
14 | NS(=O)(=O)c1ccc(Nc2ncc3cc(F)cc(-c4ccc5c(c4)CCNC5=O)c3n2)cc1 [Compound 884, 4-(6-fluoro-8-(1-oxo-1,2,3,4-tetrahydroisoquinolin-6-yl)quinazolin-2-ylamino)benzenesulfonamide] | < 5 µM |  | EC50 (A2780 cells; [3]): < 5 µM; EC50 (PC-3 cells; [4]): < 5 µM
15 | CC(C)Oc1cccc2cnc(Nc3ccc(S(N)(=O)=O)cc3)nc12 [Compound 511, 4-(8-isopropoxyquinazolin-2-ylamino)benzenesulfonamide] | < 5 µM |  | EC50 (A2780 cells; [5]): < 5 µM; EC50 (PC-3 cells; [6]): < 5 µM
16 | Cn1cc(-c2ccc3cnc(Nc4ccc(S(N)(=O)=O)cc4)nc3c2-c2ccc(F)nc2)cn1 [Compound 907, 4-(8-(6-fluoropyridin-3-yl)-7-(1-methyl-1H-pyrazol-4-yl)quinazolin-2-ylamino)benzenesulfonamide] | < 5 µM |  | EC50 (A2780 cells; [3]): < 5 µM; EC50 (PC-3 cells; [4]): < 5 µM
17 | Cc1cc2cnc(Nc3ccc(N4CCOCC4)cc3)nc2cc1OC1CCNCC1 [Compound 647, 6-methyl-N-(4-morpholinophenyl)-7-(piperidin-4-yloxy)quinazolin-2-amine] | < 5 µM |  | EC50 (A2780 cells; [5]): < 5 µM; EC50 (PC-3 cells; [6]): < 5 µM
18 | Cc1ccc(OC2CCNCC2)c2nc(Nc3ccc(C(=O)NC4CC4)cc3)ncc12 [Compound 364, N-cyclopropyl-4-(5-methyl-8-(piperidin-4-yloxy)quinazolin-2-ylamino)benzamide] | < 5 µM |  | EC50 (A2780 cells; [5]): < 5 µM; EC50 (PC-3 cells; [6]): < 5 µM
19 | NS(=O)(=O)c1ccc(Nc2ncc3cccc(OCC4CCNCC4)c3n2)cc1 [Compound 509, 4-(8-(piperidin-4-ylmethoxy)quinazolin-2-ylamino)benzenesulfonamide] | < 5 µM |  | EC50 (A2780 cells; [5]): < 5 µM; EC50 (PC-3 cells; [6]): < 5 µM
20 | Cn1cc(-c2ccc3cnc(Nc4ccc(S(N)(=O)=O)cc4)nc3c2-c2ccc(N)nc2)cn1 [Compound 905, 4-(8-(6-aminopyridin-3-yl)-7-(1-methyl-1H-pyrazol-4-yl)quinazolin-2-ylamino)benzenesulfonamide] | < 5 µM |  | EC50 (A2780 cells; [3]): < 5 µM; EC50 (PC-3 cells; [4]): < 5 µM
21 | Nc1ccc(-c2cc(F)cc3cnc(Nc4ccc(S(N)(=O)=O)cc4)nc23)cn1 [Compound 885, 4-(8-(6-aminopyridin-3-yl)-6-fluoroquinazolin-2-ylamino)benzenesulfonamide] | < 5 µM |  | EC50 (A2780 cells; [3]): < 5 µM; EC50 (PC-3 cells; [4]): < 5 µM
22 | c1csc(-c2cc3cnc(Nc4ccc(N5CCOCC5)cc4)nc3cc2OC2CCNCC2)n1 [Compound 645, N-(4-morpholinophenyl)-7-(piperidin-4-yloxy)-6-(thiazol-2-yl)quinazolin-2-amine] | < 5 µM |  | EC50 (A2780 cells; [5]): < 5 µM; EC50 (PC-3 cells; [6]): < 5 µM
23 | NS(=O)(=O)c1ccc(Nc2ncc3cc(F)cc(-c4ccc(N5CCS(=O)(=O)CC5)nc4)c3n2)cc1 [Compound 913] | < 5 µM |  | EC50 (A2780 cells; [3]): < 5 µM; EC50 (PC-3 cells; [4]): < 5 µM
24 | CC(C)N1CCC(Oc2ccc3cnc(Nc4ccc(S(=O)(=O)N5CCOCC5)cc4)nc3c2)CC1 [Compound 54, [7-(1-Isopropyl-piperidin-4-yloxy)-quinazolin-2-yl]-[4-(morpholine-4-sulfonyl)-phenyl]-amine] |  |  | IC50 (PDK1 kinase): < 5 µM; EC50 (A2780 cells; 72 h, A2780 cells, 3 days incubation): < 5 µM; EC50 (PC-3 cells; PC-3, 72 h, PC-3 cells, 3 days incubation, read-out: CP EC50 PC3): < 5 µM
25 | Cc1cc2cnc(Nc3ccc(C(=O)N4CCOCC4)cc3)nc2cc1OC1CCNCC1 [Compound 648, (4-(6-methyl-7-(piperidin-4-yloxy)quinazolin-2-ylamino)phenyl)(morpholino)methanone] | < 5 µM |  | EC50 (A2780 cells; [5]): < 5 µM; EC50 (PC-3 cells; [6]): < 5 µM
